Assay results: the NIST ThermoML archive (doi:10.1021/je301370s)

Experiment: xn = mol fraction of the nth substance listed
Details: 101 kPa, Liquid, Taylor dispersion method, x1 = 0

binary diffusion coefficient (298.2 K) [m2/s] | binary diffusion coefficient (303.2 K) [m2/s] | binary diffusion coefficient (313.2 K) [m2/s] | binary diffusion coefficient (323.2 K) [m2/s] | binary diffusion coefficient (333.2 K) [m2/s] | SMILES
7.76e-10 | 8.73e-10 | 1.12e-09 | 1.39e-09 | 1.66e-09 | NCCCCC(=O)O [5-aminovaleric acid] + O
8.38e-10 | 9.54e-10 | 1.2e-09 | 1.49e-09 | 1.79e-09 | NCCCC(=O)O [4-aminobutanoic acid] + O
6.88e-10 | 7.86e-10 | 1e-09 | 1.23e-09 | 1.48e-09 | NCCCCCCC(=O)O [7-aminoheptanoic acid] + O
9.37e-10 | 1.06e-09 | 1.35e-09 | 1.64e-09 | 1.97e-09 | NCCC(=O)O [3-aminopropanoic acid] + O
7.28e-10 | 8.25e-10 | 1.05e-09 | 1.29e-09 | 1.57e-09 | NCCCCCC(=O)O [6-aminohexanoic acid] + O
